# Like-named read-outs stand apart in the source and are kept apart here.
# Experiments:
# [1] = system: PC-3 cells; test: In vitro invasion assay in PC-3 cells; format: cell-based; details: Homo sapiens, 48 hours, compared to the control
# Procedure: Transwell chambers coated with GFR Matrigel (BD Biosciences) were used for measurement of cell invasion. The matrigel was solidified at 37° C. in a humidified incubator the day before the assay. PC3 cells (1×10^3 cells per well) were grown in serum-free RPMI1640 media in the upper side of the insert. The lower well was filled with RPMI 1640 supplemented with 10% FBS with a Limk inhibitor (1 μM). PC3 cells were incubated at 37° C. in a humidified atmosphere containing 5% CO2 for 48 h. Then transwell membrane was rinsed three times with PBS, and the cells were fixed in 2.5% EM grade glutaraldehyde for 15 min at room temperature (RT) with no shaking. After removing glutaraldehyde by aspirating, the cells were permeabilized with 0.5% Triton X-100 in PBS for 3 min at RT, and they were rinsed three times with PBS. Then, the cells were stained by Gill's hematoxylin No. 1 for 15 min at RT, and they were washed by distilled water for three times. To remove any residual stain, the cells were washed by acid alcohol for 3 minutes and then rinsed by distilled water twice. The cells were exposed with 0.04% NH4OH until a blue color is observed on the membrane and then rinsed by distilled water twice. The membranes were dried overnight, and the stained cells were visualized under Leica DMI3000B microscope.
# [2] = Microsomal stability, rat liver microsomes; format: in vitro ADME; details: rat liver microsomes
# [3] = Microsomal stability, human liver microsomes; format: in vitro ADME
# [4] = biological target: P450 2D6 (Homo sapiens, UniProt P10635); test: P450 inhibition at 10 μM; format: in vitro ADME
# [5] = system: HIV-1(VSVG); format: cell-based
# [6] = system: surface CD4 and CXCR4 on CEM-SS T cells; test: Surface staining of CD4 and CXCR4; format: cell-based, human
# Procedure: FIG. 11. R10015 inhibits HIV-1 DNA synthesis, nuclear migration, and virion release. a, Effects of R10015 on surface CD4 and CXCR4 expression. […] CEM-SS T cells were treated with R10015, and then infected with BlaM-Vpr tagged HIV-1(NL4-3) or HIV-1(VSV-G) to measure viral entry. c. R10015 inhibits viral DNA synthesis. CEM-SS T cells were treated with R10015 for 1 hour, and then infected with a single-cycle HIV-1(Env) for 2 hours in the presence of R10015. Following infection, cells were washed to remove HIV-1 and R10015. Viral DNA synthesis was measured by real-time PCR. d. R10015 inhibits 2-LTR circle DNA formation. Cells were similar treated with R10015 and infected. 2-TLR circles were quantified by real-time PCR. e. R10015 inhibits virion release. Cells were infected with HIV-1(Env) for 2 hours, washed, incubated for 12 hours, and then treated with R10015. Virion release was quantified by measuring p24 in the supernatant.
# Cells were stained with FITC-labeled monoclonal antibody against human CD4 (clone PRA-T4) or CXCR4 (clone 12G5) (BD Biosciences). Cells were stained on ice in PBS+0.1% BSA for 30 minutes, washed with cold PBS-0.5% BSA, and then analyzed on a FACSCalibur (BD Biosciences).
# [7] = biological target: T1, Aurora A (Homo sapiens, UniProt O14965); test: Kinase profiling at 1 μM (Reaction Biology); format: biochemical; details: ATP 10 μM
# T1 construct: purchased Reaction Biology Corporation
# Procedure, shortened: (§1)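 Read-out is a percentage value, taken as the mean of duplicate experiments. Each test compound was present at 1 μM, and reactions contained 10 μM ATP.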
# [8] = biological target: T2, SGK1 (Homo sapiens, UniProt O00141); test: Kinase profiling at 1 μM (Reaction Biology); format: biochemical; details: ATP 10 μM
# T2 construct: purchased Reaction Biology Corporation
# Procedure, shortened: as §1
# [9] = biological target: T3, ZIPK/DAPK3 (Homo sapiens, UniProt O43293); test: Kinase profiling at 1 μM (Reaction Biology); format: biochemical; details: ATP 10 μM
# T3 construct: purchased Reaction Biology Corporation
# Procedure, shortened: as §1
# [10] = biological target: T4, PIM2 (Homo sapiens, UniProt Q9P1W9); test: Kinase profiling at 1 μM (Reaction Biology); format: biochemical; details: ATP 10 μM
# T4 construct: purchased Reaction Biology Corporation
# Procedure, shortened: as §1
# [11] = biological target: T5, WEE1 (Homo sapiens, UniProt P30291); test: Kinase profiling at 1 μM (Reaction Biology); format: biochemical; details: ATP 10 μM
# T5 construct: purchased Reaction Biology Corporation
# Procedure, shortened: as §1
# [12] = biological target: T6, mTOR/FRAP1 (Homo sapiens, UniProt P42345); test: Kinase profiling at 1 μM (Reaction Biology); format: biochemical; details: ATP 10 μM
# T6 construct: purchased Reaction Biology Corporation
# Procedure, shortened: as §1
# [13] = biological target: T7, EPHA3 (Homo sapiens, UniProt P29320); test: Kinase profiling at 1 μM (Reaction Biology); format: biochemical; details: ATP 10 μM
# T7 construct: purchased Reaction Biology Corporation
# Procedure, shortened: as §1
# [14] = biological target: T8, IGFIR (Homo sapiens, UniProt P08069); test: Kinase profiling at 1 μM (Reaction Biology); format: biochemical; details: ATP 10 μM
# T8 construct: purchased Reaction Biology Corporation
# Procedure, shortened: as §1
# [15] = biological target: T9, P38a/MAPK14 (Homo sapiens, UniProt Q16539); test: Kinase profiling at 1 μM (Reaction Biology); format: biochemical; details: ATP 10 μM
# T9 construct: purchased Reaction Biology Corporation
# Procedure, shortened: as §1
# [16] = biological target: Limk1 (Homo sapiens, UniProt P53667); test: Limk1 biochemical assay (Reaction Biology, 10-dose IC50); parameters: His; purchased Reaction Biology Corporation; host or cells: insect cells
# [17] = system: RVFV (rift valley fever virus); format: cell-based; details: Vero cells
# [18] = system: single-cycle HIV-1(Env) in CEM-SS T cells; format: cell-based; details: all time points
# [19] = system: single-cycle HIV-1(Env) in CEM-SS T cells; test: Viral 2-LTR circles, real-time PCR; format: cell-based
# Sequence of Limk1 (P53667 285-638): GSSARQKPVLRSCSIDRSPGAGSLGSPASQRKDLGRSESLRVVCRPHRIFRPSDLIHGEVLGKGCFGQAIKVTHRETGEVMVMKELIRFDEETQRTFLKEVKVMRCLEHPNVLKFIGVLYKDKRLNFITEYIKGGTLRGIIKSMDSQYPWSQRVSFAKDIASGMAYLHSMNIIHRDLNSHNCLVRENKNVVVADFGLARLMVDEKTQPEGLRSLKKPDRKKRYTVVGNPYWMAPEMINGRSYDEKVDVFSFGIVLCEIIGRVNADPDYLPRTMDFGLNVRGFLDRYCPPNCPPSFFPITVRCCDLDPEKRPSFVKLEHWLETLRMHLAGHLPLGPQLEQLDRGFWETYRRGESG
# T2 sequence (O00141 whole entry): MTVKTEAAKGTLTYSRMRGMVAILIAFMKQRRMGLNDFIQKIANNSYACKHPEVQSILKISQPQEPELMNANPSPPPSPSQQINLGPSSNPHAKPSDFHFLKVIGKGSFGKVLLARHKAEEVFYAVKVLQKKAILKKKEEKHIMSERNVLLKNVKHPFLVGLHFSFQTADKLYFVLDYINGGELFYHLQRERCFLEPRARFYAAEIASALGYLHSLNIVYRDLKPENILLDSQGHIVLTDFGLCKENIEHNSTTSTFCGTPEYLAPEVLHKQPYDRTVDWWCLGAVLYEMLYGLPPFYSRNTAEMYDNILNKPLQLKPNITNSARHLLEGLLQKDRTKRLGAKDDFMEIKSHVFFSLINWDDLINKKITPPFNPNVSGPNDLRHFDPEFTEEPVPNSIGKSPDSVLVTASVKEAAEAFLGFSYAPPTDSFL
# T9 sequence (Q16539 whole entry): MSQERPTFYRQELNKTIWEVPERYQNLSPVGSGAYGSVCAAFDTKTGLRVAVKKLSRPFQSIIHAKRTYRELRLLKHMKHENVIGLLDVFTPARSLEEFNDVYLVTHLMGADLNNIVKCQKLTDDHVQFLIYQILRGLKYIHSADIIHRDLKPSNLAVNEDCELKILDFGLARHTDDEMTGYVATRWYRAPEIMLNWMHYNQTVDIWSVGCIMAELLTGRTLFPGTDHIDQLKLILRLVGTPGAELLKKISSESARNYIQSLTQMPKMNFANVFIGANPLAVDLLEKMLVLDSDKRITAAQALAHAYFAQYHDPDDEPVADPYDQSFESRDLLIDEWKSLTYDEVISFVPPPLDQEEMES
# T8 sequence (P08069 31-1367): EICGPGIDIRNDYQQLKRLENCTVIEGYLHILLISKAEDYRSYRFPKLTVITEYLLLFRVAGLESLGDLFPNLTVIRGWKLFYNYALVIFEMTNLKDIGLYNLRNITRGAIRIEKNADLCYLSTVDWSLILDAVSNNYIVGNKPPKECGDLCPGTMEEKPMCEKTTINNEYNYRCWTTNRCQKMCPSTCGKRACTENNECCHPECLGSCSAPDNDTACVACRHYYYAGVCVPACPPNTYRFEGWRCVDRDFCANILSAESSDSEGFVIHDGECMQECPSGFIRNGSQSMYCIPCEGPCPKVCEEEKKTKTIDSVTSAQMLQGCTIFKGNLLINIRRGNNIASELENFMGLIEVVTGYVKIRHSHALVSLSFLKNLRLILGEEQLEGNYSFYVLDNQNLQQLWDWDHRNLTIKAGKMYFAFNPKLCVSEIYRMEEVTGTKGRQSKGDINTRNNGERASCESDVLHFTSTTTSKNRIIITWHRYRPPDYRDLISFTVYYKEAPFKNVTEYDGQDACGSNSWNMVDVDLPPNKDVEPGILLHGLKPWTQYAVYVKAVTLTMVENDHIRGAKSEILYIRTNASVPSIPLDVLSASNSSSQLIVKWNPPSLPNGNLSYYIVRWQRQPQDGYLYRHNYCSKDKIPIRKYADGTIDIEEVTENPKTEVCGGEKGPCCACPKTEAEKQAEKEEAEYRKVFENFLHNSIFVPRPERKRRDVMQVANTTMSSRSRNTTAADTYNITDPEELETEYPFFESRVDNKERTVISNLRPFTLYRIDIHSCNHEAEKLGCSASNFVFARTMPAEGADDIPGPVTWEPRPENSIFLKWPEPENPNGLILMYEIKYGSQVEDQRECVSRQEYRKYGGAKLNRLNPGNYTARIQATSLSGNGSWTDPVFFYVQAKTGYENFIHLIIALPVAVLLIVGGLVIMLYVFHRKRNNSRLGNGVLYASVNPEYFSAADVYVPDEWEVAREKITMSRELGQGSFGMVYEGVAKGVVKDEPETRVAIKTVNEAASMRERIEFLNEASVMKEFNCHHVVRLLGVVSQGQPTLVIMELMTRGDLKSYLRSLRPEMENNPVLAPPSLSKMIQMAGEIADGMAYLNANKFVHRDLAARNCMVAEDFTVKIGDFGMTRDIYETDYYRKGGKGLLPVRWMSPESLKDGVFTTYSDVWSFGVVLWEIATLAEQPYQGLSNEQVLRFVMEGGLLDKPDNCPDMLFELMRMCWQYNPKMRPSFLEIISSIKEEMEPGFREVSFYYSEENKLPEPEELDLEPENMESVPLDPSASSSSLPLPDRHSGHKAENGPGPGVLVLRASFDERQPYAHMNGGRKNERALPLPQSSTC
# T4 sequence (Q9P1W9 whole entry): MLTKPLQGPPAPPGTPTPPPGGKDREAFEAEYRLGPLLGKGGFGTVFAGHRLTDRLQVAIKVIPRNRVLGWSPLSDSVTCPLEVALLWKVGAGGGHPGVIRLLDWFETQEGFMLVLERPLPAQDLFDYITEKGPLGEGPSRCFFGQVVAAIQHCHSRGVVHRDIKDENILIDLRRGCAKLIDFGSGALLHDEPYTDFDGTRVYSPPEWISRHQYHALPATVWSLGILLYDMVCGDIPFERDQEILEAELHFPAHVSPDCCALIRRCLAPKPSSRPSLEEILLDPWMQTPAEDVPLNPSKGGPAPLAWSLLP
# T5 sequence (P30291 whole entry): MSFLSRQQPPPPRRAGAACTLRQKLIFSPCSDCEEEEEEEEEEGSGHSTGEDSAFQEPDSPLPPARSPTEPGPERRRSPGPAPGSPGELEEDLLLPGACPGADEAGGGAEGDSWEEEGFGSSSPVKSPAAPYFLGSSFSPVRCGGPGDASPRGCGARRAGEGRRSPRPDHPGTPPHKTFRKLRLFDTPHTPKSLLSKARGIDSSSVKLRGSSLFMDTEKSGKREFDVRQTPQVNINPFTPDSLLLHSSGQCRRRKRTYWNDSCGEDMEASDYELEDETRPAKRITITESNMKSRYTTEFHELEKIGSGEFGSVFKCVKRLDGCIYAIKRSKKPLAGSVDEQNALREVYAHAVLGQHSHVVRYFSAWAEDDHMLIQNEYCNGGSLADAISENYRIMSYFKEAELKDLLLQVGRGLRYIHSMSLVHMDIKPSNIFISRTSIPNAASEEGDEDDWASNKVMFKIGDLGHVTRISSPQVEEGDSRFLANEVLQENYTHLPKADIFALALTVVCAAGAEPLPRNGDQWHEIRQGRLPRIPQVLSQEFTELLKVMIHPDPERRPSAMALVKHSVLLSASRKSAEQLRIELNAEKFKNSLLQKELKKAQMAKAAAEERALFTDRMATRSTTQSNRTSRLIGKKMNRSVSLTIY
# T3 sequence (O43293 whole entry): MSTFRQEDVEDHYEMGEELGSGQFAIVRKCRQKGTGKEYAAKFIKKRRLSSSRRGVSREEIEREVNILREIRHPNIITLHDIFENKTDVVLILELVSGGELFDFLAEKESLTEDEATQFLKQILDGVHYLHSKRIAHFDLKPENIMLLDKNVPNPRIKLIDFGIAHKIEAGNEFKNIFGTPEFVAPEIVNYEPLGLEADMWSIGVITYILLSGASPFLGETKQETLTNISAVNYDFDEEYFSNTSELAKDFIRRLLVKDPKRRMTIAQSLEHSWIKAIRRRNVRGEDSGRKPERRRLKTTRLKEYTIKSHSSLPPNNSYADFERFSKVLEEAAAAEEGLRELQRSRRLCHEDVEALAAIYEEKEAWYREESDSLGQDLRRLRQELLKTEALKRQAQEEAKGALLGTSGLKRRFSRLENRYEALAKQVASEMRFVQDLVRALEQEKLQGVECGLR
# Sequence of P450 2D6 (P10635 whole entry): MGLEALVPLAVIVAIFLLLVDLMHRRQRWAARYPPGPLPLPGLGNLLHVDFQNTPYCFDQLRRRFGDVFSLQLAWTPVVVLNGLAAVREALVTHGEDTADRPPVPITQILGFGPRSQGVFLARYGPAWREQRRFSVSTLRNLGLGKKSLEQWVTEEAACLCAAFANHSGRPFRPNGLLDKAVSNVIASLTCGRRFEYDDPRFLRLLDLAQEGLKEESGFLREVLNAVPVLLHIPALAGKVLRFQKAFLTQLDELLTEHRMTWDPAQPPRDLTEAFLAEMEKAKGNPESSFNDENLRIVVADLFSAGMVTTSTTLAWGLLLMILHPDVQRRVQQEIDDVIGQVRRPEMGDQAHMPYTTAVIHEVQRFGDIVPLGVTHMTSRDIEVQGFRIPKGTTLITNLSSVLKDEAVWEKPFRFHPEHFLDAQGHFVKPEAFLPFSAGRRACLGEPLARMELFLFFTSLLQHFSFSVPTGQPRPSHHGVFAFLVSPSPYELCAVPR
# T1 sequence (O14965 whole entry): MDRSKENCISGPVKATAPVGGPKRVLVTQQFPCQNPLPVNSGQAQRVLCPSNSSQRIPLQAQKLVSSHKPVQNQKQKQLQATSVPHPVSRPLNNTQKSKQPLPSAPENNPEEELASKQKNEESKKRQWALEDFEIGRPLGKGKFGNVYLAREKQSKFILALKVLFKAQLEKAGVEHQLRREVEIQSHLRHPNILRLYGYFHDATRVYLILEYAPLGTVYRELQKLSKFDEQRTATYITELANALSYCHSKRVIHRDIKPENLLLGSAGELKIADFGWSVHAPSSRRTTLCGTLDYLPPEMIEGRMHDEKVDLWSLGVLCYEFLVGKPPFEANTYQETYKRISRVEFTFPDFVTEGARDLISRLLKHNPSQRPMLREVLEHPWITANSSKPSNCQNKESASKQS
compound,measurement,setting,value
"Cc1c[nH]c2ncnc(-c3ccc(NC(=O)N(CCO)c4ccccc4)cc3)c12 [Compound 18b, 1-(2-Hydroxyethyl)-3-(4-(5-methyl-7H-pyrrolo[2,3-d]pyrimidin-4-yl)phenyl)-1-phenylurea]",inhibition at 1 µM,[1],76%
same,Microsomal Stability t1/2 (min) Rat,[2],30 min
same,Microsomal Stability t1/2 (min) Human,[3],87 min
same,P450 % inh. at 10 μM 2D6,[4],5%
"COC(=O)c1ccc2[nH]c(C3CCN(c4ncnc5[nH]cc(Cl)c45)CC3)nc2c1 [Compound R10015, Methyl 2-(1-(5-chloro-7H-pyrrolo[2,3-d]pyrimidin-4-yl)piperidin-4-yl)-1Hbenzo[d]imidazole-5-carboxylate]",inhibition of VSVG pseudotyped HIV,[5],did not inhibit
same,surface expression of CD4 and CXCR4,[6]; 1 hour treatment,did not alter
same,surface density of CD4,[6]; prolonged treatment (4 hours),slightly decreased
same,activity at 1 µM,[7],60.3%
same,activity at 1 µM,[8],61%
same,activity at 1 µM,[9],98.5%
same,activity at 1 µM,[10],97.6%
same,activity at 1 µM,[11],97.2%
same,activity at 1 µM,[12],100%
same,activity at 1 µM,[13],91.1%
same,activity at 1 µM,[14],90%
same,activity at 1 µM,[15],98.6%
same,IC50,"[16]; Table 8, read-out: LIMK1 IC50",38 ± 5 nM
same,IC50,[16]; read-out: Limk1 IC50,~38 nM
same,RVFV infection,[17],inhibited
same,viral DNA synthesis,[18],inhibited
same,viral nuclear migration (2-LTR circles),[19],inhibited

# From patent US20190292189A1, “LIM KINASE INHIBITORS” (VIRONGY, LLC, priority 2016, published 2019)
